Measurements published in ChEMBL document CHEMBL1909046, “DrugMatrix in vitro pharmacology data”.

Legend:
[1] = target: T1, Alpha-2A adrenergic receptor (Homo sapiens, UniProt P08913); format: cell membranes, Sf9, Membrane; details: for Ki: read-out: Ki; for all read-outs here: in other assays of this panel Not Active means under 50% inhibition at 10 µM
T1 sequence (P08913 whole entry): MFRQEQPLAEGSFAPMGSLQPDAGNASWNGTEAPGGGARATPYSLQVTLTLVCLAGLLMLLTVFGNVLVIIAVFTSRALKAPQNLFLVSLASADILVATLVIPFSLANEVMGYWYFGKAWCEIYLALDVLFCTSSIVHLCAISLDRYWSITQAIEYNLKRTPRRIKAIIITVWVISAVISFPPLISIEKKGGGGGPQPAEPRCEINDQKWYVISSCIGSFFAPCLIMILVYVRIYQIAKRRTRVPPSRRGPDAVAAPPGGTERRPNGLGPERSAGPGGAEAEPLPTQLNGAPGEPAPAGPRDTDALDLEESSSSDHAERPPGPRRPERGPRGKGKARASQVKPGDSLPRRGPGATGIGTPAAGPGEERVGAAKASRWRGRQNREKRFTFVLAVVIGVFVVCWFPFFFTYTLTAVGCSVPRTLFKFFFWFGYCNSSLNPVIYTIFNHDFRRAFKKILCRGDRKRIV

[2] = target: Aldo-keto reductase family 1 member B1 (Rattus norvegicus, UniProt P07943); test: biochemical; format: tissue-based, Lens of camera-type eye;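 note: inhibition of aldose reductase enzyme activity, measured with DL-glyceraldehyde as the substrate; in other assays of this panel Not Active means under 50% inhibition at 10 µM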
[3] = DRUGMATRIX: Serotonin (5-Hydroxytryptamine) 5-HT3 radioligand binding (ligand: [3H] GR-65630); format: cell membranes, Membrane; details: hek293; Not Active = under 50% inhibition at 10 µM
[4] = target: 5-hydroxytryptamine receptor 4 (Cavia porcellus, UniProt O70528); format: cell membranes, Dunkin-Hartley, Striatum, Membrane; note: in other assays of this panel Not Active means under 50% inhibition at 10 µM
D(1A) dopamine receptor = D(1A) dopamine receptor (Homo sapiens, UniProt P21728); test: DRUGMATRIX: Dopamine D1 radioligand binding (ligand: [3H] SCH-23390); format: cell membranes, CHO, Membrane; details: cho; Not Active = under 50% inhibition at 10 µM
Adenosine receptor A1 = target: T2, Adenosine receptor A1 (Homo sapiens, UniProt P30542); format: cell membranes, CHO, Membrane; details: for Ki: read-out: Ki;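 for all read-outs here: radioligand binding assay at the adenosine A1 receptor, with DPCPX serving as the labelled ligand; in other assays of this panel Not Active means under 50% inhibition at 10 µM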
T2 sequence (P30542 whole entry): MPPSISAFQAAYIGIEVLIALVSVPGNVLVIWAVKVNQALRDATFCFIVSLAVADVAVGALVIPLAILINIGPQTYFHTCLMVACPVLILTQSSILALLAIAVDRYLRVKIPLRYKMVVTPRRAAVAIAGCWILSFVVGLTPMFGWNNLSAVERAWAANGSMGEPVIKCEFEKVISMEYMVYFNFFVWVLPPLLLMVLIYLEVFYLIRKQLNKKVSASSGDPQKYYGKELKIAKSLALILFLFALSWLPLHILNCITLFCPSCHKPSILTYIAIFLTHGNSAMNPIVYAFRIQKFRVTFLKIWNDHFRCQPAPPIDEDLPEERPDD

D(1A) dopamine receptor, sequence (P21728 whole entry): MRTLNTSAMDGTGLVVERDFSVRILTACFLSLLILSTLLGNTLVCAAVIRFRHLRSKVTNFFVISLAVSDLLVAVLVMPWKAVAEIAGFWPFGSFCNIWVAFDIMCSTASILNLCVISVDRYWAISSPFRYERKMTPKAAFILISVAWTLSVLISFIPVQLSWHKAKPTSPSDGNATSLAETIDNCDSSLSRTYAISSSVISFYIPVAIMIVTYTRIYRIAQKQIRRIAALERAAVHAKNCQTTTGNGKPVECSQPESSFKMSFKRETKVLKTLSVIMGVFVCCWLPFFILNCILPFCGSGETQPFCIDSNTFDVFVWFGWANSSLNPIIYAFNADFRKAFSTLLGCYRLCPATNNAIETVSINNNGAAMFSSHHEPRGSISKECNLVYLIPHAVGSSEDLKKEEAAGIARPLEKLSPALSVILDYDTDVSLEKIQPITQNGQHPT
5-hydroxytryptamine receptor 4, sequence (O70528 whole entry): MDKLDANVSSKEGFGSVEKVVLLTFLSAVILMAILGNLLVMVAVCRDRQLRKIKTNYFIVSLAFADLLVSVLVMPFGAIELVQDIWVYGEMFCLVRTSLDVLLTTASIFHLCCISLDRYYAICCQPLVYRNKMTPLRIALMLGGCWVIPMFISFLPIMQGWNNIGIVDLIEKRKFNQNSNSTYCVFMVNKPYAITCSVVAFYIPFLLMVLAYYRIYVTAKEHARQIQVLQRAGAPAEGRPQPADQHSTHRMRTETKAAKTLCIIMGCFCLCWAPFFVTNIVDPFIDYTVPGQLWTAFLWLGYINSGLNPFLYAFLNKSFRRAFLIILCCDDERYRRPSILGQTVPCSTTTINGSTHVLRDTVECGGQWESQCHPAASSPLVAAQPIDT

Structure (SMILES)	IC50 ([1]; sf9)	IC50 [2]	IC50 [3]	Ki [3]	IC50 [4]	IC50 (D(1A) dopamine receptor)	IC50 (Adenosine receptor A1; read-out: IC50) [nM]	Ki (Adenosine receptor A1) [nM]	IC50 (Adenosine receptor A1; cho)	IC50 ([2]; read-out: IC50) [nM]	IC50 ([1]; read-out: IC50) [nM]	Ki [1] [nM]
COc1cc(N)nc2[nH]c(-c3ccc(F)cc3)c(-c3ccncc3)c12	Not Active	Not Active	Not Active	Not Active	Not Active	Not Active	887	518				
CNS(=O)(=O)Cc1ccc2[nH]cc(CCN(C)C)c2c1	Not Active	Not Active	Not Active	Not Active	Not Active	Not Active			Not Active			
CCCc1nn(C)c2c(=O)[nH]c(-c3cc(S(=O)(=O)N4CCN(C)CC4)ccc3OCC)nc12	Not Active	Not Active	Not Active	Not Active	Not Active	Not Active	1490	871				
COc1ccc(/C=C/C(=O)Nc2ccccc2C(=O)O)cc1OC	Not Active	Not Active	Not Active	Not Active	Not Active	Not Active			Not Active			
CCOC(N)=O	Not Active	Not Active	Not Active	Not Active	Not Active	Not Active			Not Active			
CC(=O)Nc1nnc(S(N)(=O)=O)s1 [ACETAZOLAMIDE]	Not Active	Not Active			Not Active				Not Active			
O=c1[nH]c2ccccc2n1CCCN1CCC(n2c(=O)[nH]c3cc(Cl)ccc32)CC1 [DOMPERIDONE]		Not Active			Not Active				Not Active			
CC1=C(CC(=O)O)c2cc(F)ccc2/C1=C\c1ccc(S(C)(=O)=O)cc1 [EXISULIND]	Not Active		Not Active	Not Active	Not Active	Not Active			Not Active	269		
CC(C)OC(=O)C(C)(C)Oc1ccc(C(=O)c2ccc(Cl)cc2)cc1 [FENOFIBRATE]	Not Active	Not Active			Not Active				Not Active			
OCCN1CCN(CCCN2c3ccccc3Sc3ccc(C(F)(F)F)cc32)CC1 [FLUPHENAZINE]		Not Active			Not Active				Not Active		215	80
CN1C2CCCC1CC(NC(=O)c1nn(C)c3ccccc13)C2 (centres undefined) [GRANISETRON]	Not Active	Not Active			Not Active				Not Active			
Nc1nc2c(c(=O)[nH]1)N(C=O)C(CNc1ccc(C(=O)N[C@@H](CCC(=O)O)C(=O)O)cc1)CN2 (some centres undefined) [LEUCOVORIN]	Not Active	Not Active	Not Active	Not Active	Not Active	Not Active			Not Active			
C[C@@H](O)[C@H]1C(=O)N2C(C(=O)O)=C(S[C@@H]3CN[C@H](C(=O)N(C)C)C3)[C@H](C)[C@H]12 [MEROPENEM]	Not Active	Not Active	Not Active	Not Active	Not Active	Not Active			Not Active			
CC[C@@H](CO)NC(=O)[C@@H]1C=C2c3cccc4c3c(cn4C)C[C@H]2N(C)C1 [METHYSERGIDE]		Not Active			Not Active				Not Active		1630	611
CCN(CC)CC#CCOC(=O)C(O)(c1ccccc1)C1CCCCC1 (centres undefined) [OXYBUTYNIN]	Not Active	Not Active			Not Active				Not Active			
O=P(O)(O)C(O)(Cc1cccnc1)P(=O)(O)O [RISEDRONIC ACID]	Not Active	Not Active	Not Active	Not Active	Not Active	Not Active			Not Active			
